Measured values: ChEMBL document CHEMBL3885881, “DrugMatrix”

Organism: Rattus norvegicus
Assay: DrugMatrix - Regimen: Daily Repeat
Assay type: toxicity, organism-based, Sprague-Dawley
Design: regimen Daily Repeat, gender Male, age 6-8 weeks
Conditions: in vivo, po, route oral GAVAGE, […]; for ABSOLUTE BASOPHIL / ABSOLUTE EOSINOPHIL / ABSOLUTE LYMPHOCYTE / ABSOLUTE MONOCYTE / ABSOLUTE SEGMENTED NEUTROPHIL / BASOPHIL / EOSINOPHIL / ERYTHROCYTE COUNT / HEMATOCRIT / HEMOGLOBIN / LEUKOCYTE COUNT / LYMPHOCYTE / MEAN CORPUSCULAR HEMOGLOBIN / MEAN CORPUSCULAR HEMOGLOBIN CONCENTRATION / MEAN CORPUSCULAR VOLUME / MONOCYTE / NEUTROPHIL / NUCLEATED RED BLOOD CELLS / PLATELET COUNT: tissue Blood; for ALANINE AMINOTRANSFERASE / ALBUMIN / ALKALINE PHOSPHATASE / ASPARTATE AMINOTRANSFERASE / BLOOD UREA NITROGEN / CARBON DIOXIDE / CHLORIDE / CHOLESTEROL / CREATINE PHOSPHOKINASE / CREATININE / GLUCOSE / LACTATE DEHYDROGENASE / LIPASE / PHOSPHORUS / POTASSIUM / SODIUM / TOTAL BILIRUBIN / TOTAL PROTEIN / URIC ACID: tissue Plasma
[1] = 5 mg/kg, 120 h, dose level Low, time 5 day
[2] = 50 mg/kg, 72 h, dose level High, time 3 day
[3] = 50 mg/kg, 120 h, dose level High, time 5 day

O=C(Nc1ccc(Cl)c(Cl)c1)c1cc(Cl)cc(Cl)c1O [3,3',4',5-TETRACHLOROSALICYLANILIDE]
ABSOLUTE BASOPHIL [1]: 0 CELLS/uL | ABSOLUTE EOSINOPHIL [1]: 0 CELLS/uL | ABSOLUTE LYMPHOCYTE [1]: 11308.33 CELLS/uL | ABSOLUTE MONOCYTE [1]: 94.67 CELLS/uL | ABSOLUTE SEGMENTED NEUTROPHIL [1]: 1830.33 CELLS/uL | BASOPHIL [1]: 0% | EOSINOPHIL [1]: 0% | ERYTHROCYTE COUNT [1]: 5.77 x10E6/uL | HEMATOCRIT [1]: 35.8% | HEMOGLOBIN [1]: 13.8 G/DL | LEUKOCYTE COUNT [1]: 13.23 x10E3/uL | LYMPHOCYTE [1]: 85.33% | MEAN CORPUSCULAR HEMOGLOBIN [1]: 23.93 pg | MEAN CORPUSCULAR HEMOGLOBIN CONCENTRATION [1]: 38.53 G/DL | MEAN CORPUSCULAR VOLUME [1]: 62.1 fL | MONOCYTE [1]: 0.67% | NEUTROPHIL [1]: 14% | NUCLEATED RED BLOOD CELLS [1]: 0.33 /100WBC | PLATELET COUNT [1]: 1151 x10E3/uL | ALANINE AMINOTRANSFERASE [1]: 59 u/L | ALBUMIN [1]: 4.07 G/DL | ALKALINE PHOSPHATASE [1]: 368.33 u/L | ASPARTATE AMINOTRANSFERASE [1]: 97.67 u/L | BLOOD UREA NITROGEN [1]: 14.33 mg/dL | CARBON DIOXIDE [1]: 28.67 mmol/L | CHLORIDE [1]: 101.33 MEQ/L | CHOLESTEROL [1]: 63.33 mg/dL | CREATINE PHOSPHOKINASE [1]: 534.67 u/L | CREATININE [1]: 0.21 mg/dL | GLUCOSE [1]: 164 mg/dL | LACTATE DEHYDROGENASE [1]: 242 u/L | LIPASE [1]: 11.33 u/L | PHOSPHORUS [1]: 10.3 mg/dL | POTASSIUM [1]: 5.94 MEQ/L | SODIUM [1]: 143.17 MEQ/L | TOTAL BILIRUBIN [1]: 0.13 mg/dL | TOTAL PROTEIN [1]: 5.77 G/DL | URIC ACID [1]: 1.63 mg/dL | ABSOLUTE BASOPHIL [2]: 0 CELLS/uL | ABSOLUTE EOSINOPHIL [2]: 28.67 CELLS/uL | ABSOLUTE LYMPHOCYTE [2]: 9453.33 CELLS/uL | ABSOLUTE MONOCYTE [2]: 0 CELLS/uL | ABSOLUTE SEGMENTED NEUTROPHIL [2]: 884.67 CELLS/uL | BASOPHIL [2]: 0% | EOSINOPHIL [2]: 0.33% | ERYTHROCYTE COUNT [2]: 5.84 x10E6/uL | HEMATOCRIT [2]: 36.23% | HEMOGLOBIN [2]: 13.87 G/DL | LEUKOCYTE COUNT [2]: 10.37 x10E3/uL | LYMPHOCYTE [2]: 91% | MEAN CORPUSCULAR HEMOGLOBIN [2]: 23.83 pg | MEAN CORPUSCULAR HEMOGLOBIN CONCENTRATION [2]: 38.33 G/DL | MEAN CORPUSCULAR VOLUME [2]: 62.23 fL | MONOCYTE [2]: 0% | NEUTROPHIL [2]: 8.67% | NUCLEATED RED BLOOD CELLS [2]: 0 /100WBC | PLATELET COUNT [2]: 1272.33 x10E3/uL | ALANINE AMINOTRANSFERASE [2]: 61.67 u/L | ALBUMIN [2]: 4.1 G/DL | ALKALINE PHOSPHATASE [2]: 432.67 u/L | ASPARTATE AMINOTRANSFERASE [2]: 89.67 u/L | BLOOD UREA NITROGEN [2]: 13.33 mg/dL | CARBON DIOXIDE [2]: 31 mmol/L | CHLORIDE [2]: 101.67 MEQ/L | CHOLESTEROL [2]: 79.67 mg/dL | CREATINE PHOSPHOKINASE [2]: 183.67 u/L | CREATININE [2]: 0.21 mg/dL | GLUCOSE [2]: 125.67 mg/dL | LACTATE DEHYDROGENASE [2]: 128.33 u/L | LIPASE [2]: 11.33 u/L | PHOSPHORUS [2]: 10.67 mg/dL | POTASSIUM [2]: 6.23 MEQ/L | SODIUM [2]: 144.27 MEQ/L | TOTAL BILIRUBIN [2]: 0.2 mg/dL | TOTAL PROTEIN [2]: 5.8 G/DL | URIC ACID [2]: 1.03 mg/dL | ABSOLUTE BASOPHIL [3]: 0 CELLS/uL | ABSOLUTE EOSINOPHIL [3]: 19.33 CELLS/uL | ABSOLUTE LYMPHOCYTE [3]: 5934.67 CELLS/uL | ABSOLUTE MONOCYTE [3]: 58 CELLS/uL | ABSOLUTE SEGMENTED NEUTROPHIL [3]: 688 CELLS/uL | BASOPHIL [3]: 0% | EOSINOPHIL [3]: 0.33% | ERYTHROCYTE COUNT [3]: 6.18 x10E6/uL | HEMATOCRIT [3]: 36.87% | HEMOGLOBIN [3]: 14 G/DL | LEUKOCYTE COUNT [3]: 6.7 x10E3/uL | LYMPHOCYTE [3]: 88.33% | MEAN CORPUSCULAR HEMOGLOBIN [3]: 22.73 pg | MEAN CORPUSCULAR HEMOGLOBIN CONCENTRATION [3]: 38.03 G/DL | MEAN CORPUSCULAR VOLUME [3]: 59.67 fL | MONOCYTE [3]: 0.67% | NEUTROPHIL [3]: 10.67% | NUCLEATED RED BLOOD CELLS [3]: 0 /100WBC | PLATELET COUNT [3]: 1091 x10E3/uL | ALANINE AMINOTRANSFERASE [3]: 49.33 u/L | ALBUMIN [3]: 4.27 G/DL | ALKALINE PHOSPHATASE [3]: 412 u/L | ASPARTATE AMINOTRANSFERASE [3]: 76 u/L | BLOOD UREA NITROGEN [3]: 15.67 mg/dL | CARBON DIOXIDE [3]: 32 mmol/L | CHLORIDE [3]: 101 MEQ/L | CHOLESTEROL [3]: 77.33 mg/dL | CREATINE PHOSPHOKINASE [3]: 289 u/L | CREATININE [3]: 0.25 mg/dL | GLUCOSE [3]: 133.33 mg/dL | LACTATE DEHYDROGENASE [3]: 94.67 u/L | LIPASE [3]: 11.67 u/L | PHOSPHORUS [3]: 9.23 mg/dL | POTASSIUM [3]: 5.61 MEQ/L | SODIUM [3]: 145.93 MEQ/L | TOTAL BILIRUBIN [3]: 0.13 mg/dL | TOTAL PROTEIN [3]: 6.07 G/DL | URIC ACID [3]: 1.03 mg/dL
